# Experimental data taken from ChEMBL document CHEMBL3872231, “Design, synthesis, and biological evaluation of fluorinated imidazo[1,2-a]pyridine derivatives with potential antipsychotic activity” (Eur J Med Chem, 2016).
# Active and inactive are the calls of the source. The calls are words filed in the database; no cut-off is given here.
# Assays:
# [1] = Displacement of [3H]-flunitrazepam from rat brain GABA-A receptor benzodiazepine site after 20 mins by liquid scintillation counting
# [2] = tested on: HepG2; experiment: (§1) Hepatotoxicity in human HepG2 cells assessed as intracellular ATP level after 48 hrs by luminescence based ATP detection assay; type: toxicity, cell-based; details: hepg2, 48 h
# [3] = tested on: HepG2; experiment: Hepatotoxicity in human HepG2 cells assessed as cell membrane damage after 48 hrs by luminescence assay; type: toxicity, cell-based; details: hepg2, 48 h
# [4] = tested on: HepG2; experiment: (§2) Hepatotoxicity in human HepG2 cells assessed as intracellular ATP level after 24 hrs by luminescence based ATP detection assay; type: toxicity, cell-based; details: hepg2, 24 h
# [5] = tested on: Rattus norvegicus; experiment: Antipsychotic activity in rat assessed as reversal of amphetamine-induced hyperlocomotion at 1 mg/kg, ip treated for 30 mins prior to test followed by amphetamine administration 15 mins prior to test by open field test; type: functional, organism-based
# [6] = Drug metabolism in human liver microsomes assessed as 2-(2-(4-(hydroxymethyl)phenyl)-6-methylimidazo[1,2-a]pyridin-3-yl)-N,N-dimethylacetamide formation at 20 uM preincubated for 15 mins followed by NADPH addition measured after 60 mins by UPLC-MS/MS analysis; type: ADME; details: 1 h
# [7] = tested on: HepG2; experiment: (§3) Hepatotoxicity in human HepG2 cells assessed as loss of mitochondrial membrane potential after 24 hrs by JC-1 staining based fluorescence assay; type: toxicity, cell-based; details: hepg2, 24 h
# [8] = tested on: HepG2; experiment: (§4) Hepatotoxicity in human HepG2 cells assessed as decrease in cell viability after 48 hrs by PrestoBlue assay; type: toxicity, cell-based; details: hepg2, 48 h
# [9] = molecular target: T1, GABA-A receptor; alpha-1/beta-2/gamma-2 (Homo sapiens) (UniProt P14867+P47870+P18507); experiment: Positive allosteric modulation of human recombinant GABA-A receptor alpha1beta2gamma2 expressed in HEK293 cells assessed as potentiation of GABA induced chloride currents at 1 uM treated every 60 secs measured for 7 secs by electrophysiological method relative to GABA; type: cell-based
# [10] = tested on: HepG2; experiment: (§5) Hepatotoxicity in human HepG2 cells assessed as decrease in cell viability after 24 hrs by PrestoBlue assay; type: toxicity, cell-based; details: hepg2, 24 h
# [11] = tested on: HepG2; experiment: Hepatotoxicity in human HepG2 cells assessed as cell membrane damage after 24 hrs by luminescence assay; type: toxicity, cell-based; details: hepg2, 24 h
# [12] = Plasma elimination half life in human; type: ADME; details: read-out: beta t1/2
# [13] = Metabolic stability in human liver microsomes at 20 uM preincubated for 15 mins followed by NADPH addition measured after 60 mins by UPLC-MS/MS analysis; type: ADME; details: 1 h
# [14] = tested on: Rattus norvegicus; experiment: Antipsychotic activity in ip dosed rat assessed as reversal of amphetamine-induced hyperlocomotion administered 30 mins before administration of amphetamine measured for 15 mins by open field test; type: functional
# [15] = tested on: Rattus norvegicus; experiment: Toxicity in rat assessed as decrease in spontaneous locomotor activity at 1 mg/kg, ip treated for 60 mins by open field test; type: organism-based; details: in vivo, 1 h
# [16] = tested on: Rattus norvegicus; experiment: Antipsychotic activity in rat assessed as reversal of amphetamine-induced hyperlocomotion at 3 mg/kg, ip treated for 60 mins prior to test followed by amphetamine administration 15 mins prior to test by open field test; type: functional, organism-based
# [17] = tested on: Rattus norvegicus; experiment: Toxicity in rat assessed as effect on behavioral changes at 1 mg/kg, ip administered 60 mins; type: organism-based; details: in vivo, 1 h
# [18] = tested on: Rattus norvegicus; experiment: Antipsychotic activity in rat assessed as reversal of amphetamine-induced hyperlocomotion at 3 mg/kg, ip treated for 30 mins prior to test followed by amphetamine administration 15 mins prior to test by open field test; type: functional, organism-based
# [19] = tested on: Rattus norvegicus; experiment: Toxicity in rat assessed as cataleptogenic effects at 1 mg/kg, ip administered 60 mins; type: organism-based; details: in vivo, 1 h
# [20] = molecular target: T2, GABA-A receptor; alpha-1/beta-2/gamma-2 (Homo sapiens, UniProt P14867+P18507+P47870); experiment: Positive allosteric modulation of human recombinant GABA-A receptor alpha1beta2gamma2 expressed in HEK293 cells assessed as potentiation of GABA induced chloride currents treated every 60 secs measured for 7 secs by electrophysiological method; type: cell-based
# T2 sequence (P14867 whole entry): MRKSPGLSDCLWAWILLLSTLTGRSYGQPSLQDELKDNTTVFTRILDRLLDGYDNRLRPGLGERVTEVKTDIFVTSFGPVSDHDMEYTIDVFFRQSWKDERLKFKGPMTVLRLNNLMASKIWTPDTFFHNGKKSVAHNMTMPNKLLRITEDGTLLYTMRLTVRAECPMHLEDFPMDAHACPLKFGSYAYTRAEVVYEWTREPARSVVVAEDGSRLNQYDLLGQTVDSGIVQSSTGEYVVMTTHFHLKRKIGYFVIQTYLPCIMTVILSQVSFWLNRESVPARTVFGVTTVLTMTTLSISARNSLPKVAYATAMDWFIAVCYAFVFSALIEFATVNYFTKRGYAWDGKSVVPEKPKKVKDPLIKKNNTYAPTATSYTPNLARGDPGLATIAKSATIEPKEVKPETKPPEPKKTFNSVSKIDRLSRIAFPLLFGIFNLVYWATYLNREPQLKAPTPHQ
# T2 sequence (P47870 whole entry): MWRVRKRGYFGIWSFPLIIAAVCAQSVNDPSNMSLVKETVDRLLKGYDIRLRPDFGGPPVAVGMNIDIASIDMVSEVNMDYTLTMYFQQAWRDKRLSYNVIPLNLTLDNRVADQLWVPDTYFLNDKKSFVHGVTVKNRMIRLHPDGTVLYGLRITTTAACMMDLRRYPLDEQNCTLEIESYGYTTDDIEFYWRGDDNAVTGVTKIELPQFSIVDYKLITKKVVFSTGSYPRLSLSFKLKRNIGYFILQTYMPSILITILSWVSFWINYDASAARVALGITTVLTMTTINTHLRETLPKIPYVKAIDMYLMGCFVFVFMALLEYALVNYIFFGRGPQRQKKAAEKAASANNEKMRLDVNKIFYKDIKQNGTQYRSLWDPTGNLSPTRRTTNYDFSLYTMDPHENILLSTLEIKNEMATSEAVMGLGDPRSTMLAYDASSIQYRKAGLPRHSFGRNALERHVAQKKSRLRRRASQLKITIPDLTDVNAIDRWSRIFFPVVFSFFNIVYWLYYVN
# T2 sequence (P18507 whole entry): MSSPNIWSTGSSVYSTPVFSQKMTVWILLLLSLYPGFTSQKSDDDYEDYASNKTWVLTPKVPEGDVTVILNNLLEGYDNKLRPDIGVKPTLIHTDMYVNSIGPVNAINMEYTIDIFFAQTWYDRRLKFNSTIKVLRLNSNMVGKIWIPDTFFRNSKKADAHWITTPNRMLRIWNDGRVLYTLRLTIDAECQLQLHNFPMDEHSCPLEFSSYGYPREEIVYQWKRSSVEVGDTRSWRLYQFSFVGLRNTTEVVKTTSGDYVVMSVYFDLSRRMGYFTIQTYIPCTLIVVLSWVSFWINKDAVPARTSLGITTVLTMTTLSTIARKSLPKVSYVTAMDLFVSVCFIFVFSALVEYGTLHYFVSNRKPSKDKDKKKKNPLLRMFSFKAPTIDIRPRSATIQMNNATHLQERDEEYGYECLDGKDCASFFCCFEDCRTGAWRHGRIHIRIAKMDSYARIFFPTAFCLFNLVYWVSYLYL
# [21] = molecular target: T1, GABA-A receptor; alpha-1/beta-2/gamma-2 (Homo sapiens); experiment: Positive allosteric modulation of human recombinant GABA-A receptor alpha1beta2gamma2 expressed in HEK293 cells assessed as potentiation of GABA induced chloride currents at 1 uM treated every 60 secs measured for 7 secs by electrophysiological method; type: cell-based
# [22] = tested on: Rattus norvegicus; experiment: Toxicity in rat assessed as myorelaxant effects at 1 mg/kg, ip administered 60 mins; type: organism-based; details: in vivo, 1 h
# [23] = Drug level in human liver microsomes treated with 20 uM of 2-(6-fluoro-2-p-tolylimidazo[1,2-a]pyridin-3-yl)-N,N-dimethylethanamide preincubated for 15 mins followed by NADPH addition measured after 60 mins by UPLC-MS/MS analysis; type: ADME; details: 1 h
# [24] = as §1; type: toxicity, cell-based; details: HepG2 cells
# [25] = as §2; type: toxicity, cell-based; details: HepG2 cells
# [26] = as §3; type: toxicity, cell-based; details: HepG2 cells
# [27] = as §4; type: toxicity, cell-based; details: HepG2 cells
# [28] = as §5; type: toxicity, cell-based; details: HepG2 cells
# [29] = species on record: Rattus norvegicus; experiment: Potency index, ratio of zolpidem Ki to compound Ki for rat brain GABA-A receptor benzodiazepine site
# [30] = Drug metabolism in human liver microsomes assessed as 2-(6-fluoro-2-(4-(hydroxymethyl)phenyl)imidazo[1,2-a]pyridin-3-yl)-N,N-dimethylacetamide formation at 20 uM preincubated for 15 mins followed by NADPH addition measured after 60 mins by UPLC-MS/MS analysis; type: ADME; details: 1 h
compound,measurement,setting,value
CN(C)C(=O)Cc1c(-c2cccc(F)c2)nc2ccc(F)cn12,Ki,[1],140 nM
Cc1ccc(-c2nc3ccc(C)cn3c2CC(=O)N(C)C)cc1 [ZOLPIDEM],Activity,[2],Non-Toxic
same,Activity,[3],Non-Toxic
same,Activity,[4],Non-Toxic
same,Activity,[5],Active
same,Drug metabolism,[6],Metabolite_Detected
same,Activity,[7],Non-Toxic
same,Activity,[8],Non-Toxic
same,fold change (FC),[9],2.5
same,Activity,[10],Non-Toxic
same,Ki,[1],44 nM
same,Activity,[11],Non-Toxic
same,half-life,[12],≤ 2 h
same,Stability,[13],Stable
Cc1ccc2nc(-c3ccc(F)cc3)c(CC(=O)N(C)C)n2c1,Activity,[14],Dose-dependent effect
same,minimal effective dose,[14]; read-out: MED,1 mg/kg
same,Activity,[2],Non-Toxic
same,Activity,[15],Toxic
same,Activity,[16],Active
same,Activity,[3],Non-Toxic
same,Activity,[4],Non-Toxic
same,Activity,[17],Toxic
same,Activity,[18],Active
same,Activity,[19],Non-Toxic
same,Activity,[7],Non-Toxic
same,EC50,[20],238 nM
same,Activity,[8],Non-Toxic
same,Activity,[21],Active
same,fold change (FC),[9],1.9
same,Activity,[10],Non-Toxic
same,Ki,[1],59.6 to 60 nM
same,Activity,[22],Non-Toxic
same,Activity,[11],Non-Toxic
same,Stability,[13],Stable
Cc1ccc(-c2nc3ccc(CO)cn3c2CC(=O)N(C)C)cc1,Drug metabolism,[23],Metabolite_Detected
CN(C)C(=O)Cc1c(-c2ccc(C(F)(F)F)cc2)nc2ccc(F)cn12,Ki,[1],68 nM
CN(C)C(=O)Cc1c(-c2ccc(F)cc2F)nc2ccc(F)cn12,Ki,[1],180 nM
N#CC(C#N)=NNc1cccc(Cl)c1 [CARBONYL CYANIDE M-CHLOROPHENYLHYDRAZONE],IC50 at 48 h,[24],7200 nM
same,Activity,[3],Non-Toxic
same,IC50 at 24 h,[25],9800 nM
same,IC50 at 24 h,[26],36000 nM
same,IC50 at 48 h,[27],6000 nM
same,IC50 at 24 h,[28],22000 nM
same,Activity,[11],Non-Toxic
Cc1ccc(-c2nc3ccc(F)cn3c2CC(=O)N(C)C)cc1,Ratio Ki,[29],1.8
same,Activity,[2],Non-Toxic
same,Activity,[3],Non-Toxic
same,Activity,[4],Non-Toxic
same,Activity,[7],Non-Toxic
same,EC50,[20],1270 nM
same,Activity,[8],Non-Toxic
same,Activity,[21],Active
same,Drug metabolism,[30],Metabolite_Detected
same,fold change (FC),[9],1.5
same,Activity,[10],Non-Toxic
same,Ki,[1],25 nM
same,Activity,[11],Non-Toxic
